Values of other authors, collected in patent US11351185B2, “Use of isovalerylspiramycins as anti-cancer agents to inhibit metastasis” (priority 2020, dated 2022).

Columns and labels:
[1] = system: in vivo cancer parameters; conditions: animal models; cited from earlier work
human cancer lines = conditions: MCF-7, MDA-MB-231, HepG2, A549, H460, H1299, 786-0, 769-P, U251, A172, U937, HeLa, PC3, PANC-1, TE-1, SGC-7901, HT-29, HL-60; cited from earlier work

Structure (SMILES): CO[C@@H]1[C@@H](O[C@@H]2O[C@H](C)[C@@H](O[C@H]3C[C@@](C)(O)[C@@H](OC(=O)CC(C)C)[C@H](C)O3)[C@H](N(C)C)[C@H]2O)[C@@H](CC=O)C[C@@H](C)[C@@H](O[C@H]2CC[C@H](N(C)C)[C@@H](C)O2)/C=C/C=C/C[C@@H](C)OC(=O)C[C@H]1OC(C)=O [ISP II, 4″-isolvalerylspiramycin II]
- in vivo cancer parameters such as tumor growth rate and relative tumor volume [1]: reduction
- effect on proliferation in vitro of human cancer lines (human cancer lines): inhibitory effect

Structure (SMILES): CCC(=O)O[C@@H]1CC(=O)O[C@H](C)C/C=C/C=C/[C@H](O[C@H]2CC[C@H](N(C)C)[C@@H](C)O2)[C@H](C)C[C@H](CC=O)[C@H](O[C@@H]2O[C@H](C)[C@@H](O[C@H]3C[C@@](C)(O)[C@@H](OC(=O)CC(C)C)[C@H](C)O3)[C@H](N(C)C)[C@H]2O)[C@H]1OC [ISP III, 4″-isolvalerylspiramycin III]
- in vivo cancer parameters such as tumor growth rate and relative tumor volume [1]: reduction
- effect on proliferation in vitro of human cancer lines (human cancer lines): inhibitory effect
